# Experimental data from patent US10851073B2, “Protein tyrosine phosphatase inhibitors and methods of use thereof” (Calico Life Sciences LLC, priority 2019, dated 2020).
# Columns and labels:
# [1] = test system: MC-38 murine colon adenocarcinoma; experiment: In vivo efficacy in MC38 mouse tumor model
# Description: Example 232. In Vivo Efficacy of PTPN2 Inhibitors in MC38 Mouse Tumor Model and Impact on Pharmacodynamic Markers
# All experiments were conducted in compliance with AbbVie's Institutional Animal Care and Use Committee and the National Institutes of Health Guide for Care and Use of Laboratory Animals guidelines in a facility accredited by the Association for the Assessment and Accreditation of Laboratory Animal Care. C57Bl/6 female mice were obtained from Charles River (Wilmington, Mass.). The mice were group-housed 10 per cage. Food and water were available ad libitum. Animals were acclimated to the animal facilities for a period of at least one week prior to commencement of experiments. Animals were tested in the light phase of a 12-hour light: 12-hour dark schedule (lights on 0600 hours).
# Tumor Cell Inoculation and Treatments.
# Cells were grown to passage 3 in vitro. A total of 1×10^5 viable MC-38 cells were inoculated subcutaneously into the right flank of female C57Bl/6 mice (7-12 weeks old) on Day 0. The injection volume was 0.1 mL and was composed of a 1:1 mixture of S-MEM and Matrigel® (Corning, N.Y., USA). […] The mean tumor volume (TV) at size match was approximately 196±64 mm^3. Following size match, treatments were initiated on the same day. Dosing of mice was conducted orally, twice a day (BID) at 7 a.m. and 5 p.m. for 21 days. Mice were dosed (10 mg/kg/dose) with either Compound 118 or vehicle controls (n=15 mice/group). Compound 118 was formulated in 10% ethanol, 30% PEG-400 and 60% Phosal-50PG and was dosed at 10 mL/kg. Tumor volume was calculated three times weekly. Measurements of the length (L) and width (W) of the tumor were taken via electronic caliper and the volume was calculated according to the following equation: V=L×W^2/2 using Study Director Version 3.1.399.22 (Studylog Systems, Inc, CA, USA). Mice were euthanized when tumor volume was […] or skin ulcerations occurred. Tumor growth inhibition (TGI) was calculated as TGI=1−(Mean TVTimepoint(Treatment)/Mean TVTimepoint (Vehicle)) for each timepoint that tumor volumes were measured. Reported TGIMax is the largest TGI value for any timepoint that tumors volumes were collected for that treatment group.
# pSTAT5 in CD3+ T cells = experiment: pSTAT5 flow cytometry assay in mouse whole blood; assay type: in vivo
# Description: pSTAT5 Flow Cytometry Assay in Mouse Whole Blood. Whole blood was drawn into EDTA powder coated tubes by cardiac puncture from mice on day 8 of dosing with Compound 118 (2 hours after the 16th dose). 90 μL of whole blood were stimulated with 10 μL of murine IL-2 to achieve a final concentration of 100 ng IL-2/mL (R&D Systems, Minneapolis, Minn., cat #402-ML) for 20 minutes at 37° C., 5% CO2. After stimulation, 1.8 mL of prewarmed BD Phosflow Lyse/Fix Buffer (BD Biosciences, San Jose, Calif.) was added for 20 minutes at 37° C. Cells were washed twice in FACS buffer (Dulbecco's PBS with 0.2% BSA) and incubated for 30 minutes on ice in cold Perm Buffer III (BD Biosciences, San Jose, Calif.). Cells were washed with FACS buffer and resuspended in 50 μL of FACS buffer with antibodies and stained for 3 hours at room temperature with gentle shaking. […] After staining, cells were washed twice with FACS buffer, and the samples were acquired on a BD LSRFortessa™ X20 flow cytometers (BD Biosciences, San Jose, Calif.) and analyzed with FLowJo V10 software (FlowJo, Ashland, Oreg.). The mean fluorescence intensity (MFI) of pSTAT5 as a measure of the amount of phosphorylated STAT5 in the CD3+ T cell population from vehicle or Compound 118 treated animals was reported.
# [2] = test system: Granzyme B+ cells within the CD8+ T cell population; experiment: Granzyme B staining of CD8 T cells flow cytometry assay in mouse spleen; assay type: in vivo
# Description: Granzyme B Staining of CD8 T Cells Flow Cytometry Assay in Mouse Spleen. Mice were sacrificed on day 8 of dosing with Compound 118 (2 hours after the 16th dose) and spleens were excised. Spleens were dissociated with a gentleMACS dissociator (Miltenyi Biotec, Bergisch Gladbach, Germany), red blood cells lysed, and single cell suspensions were prepared. Splenocytes were stained with Zombie UV™ Fixable Viability kit (Biolegend, San Diego, Calif.) diluted in Dulbecco's PBS for 10 minutes at room temperature to exclude dead cells followed by staining for surface markers for 45 minutes on ice using the following flow cytometry antibodies diluted in autoMACS Running Buffer (Miltenyi Biotec, Bergisch Gladbach, Germany): Brilliant Violet 510-labeled anti-CD45, Brilliant Ultraviolet 395-labeled anti-CD3, Brilliant Violet 786-labeled anti-CD4, APC/Cy7-labeled anti-CD8. […] After staining, cells were washed twice with autoMACS Running Buffer, and the samples were acquired on a BD LSRFortessa™ X20 flow cytometers (BD Biosciences, San Jose, Calif.) and analyzed with FLowJo V10 software (FlowJo, Ashland, Oreg.). […]
# IP10 = experiment: Cytokine measurement in mouse plasma; assay type: in vivo
# Description: Cytokine Measurement in Mouse Plasma. Whole blood was drawn into EDTA powder coated tubes by cardiac puncture from mice on day 8 of dosing with Compound 118 (2 hours after the 16th dose) and plasma was prepared by centrifugation. Cytokines in plasma were measured using the Th1/Th2 Cytokine & Chemokine 20-Plex Mouse ProcartaPlex™ Panel 1 (Invitrogen, Carlsbad, Calif.). IP10 levels (pg/mL) in vehicle or Compound 118 treated animals were reported.
# [3] = 10 mg/kg/dose oral BID for 21 days
# [4] = 10 mg/kg/dose oral BID, day 8 of dosing (2 hours post 16th dose), value ± SEM
smiles,measurement,setting,value
"CC(C)CCN[C@@H]1CCc2cc(O)c(N3CC(=O)NS3(=O)=O)c(F)c2C1 (single isomer, unassigned) [Compound 118]",mice that achieved complete cures,[1]; [3],70%
same,tolerability,[1]; [3],"well tolerated, without obvious adverse health events"
same,Tumor Growth Inhibition (Max) compared to vehicle [%],"[1]; 10 mg/kg/dose oral BID for 21 days, C57Bl/6 mice",94%
same,tumor response observed,[1]; within 7-10 days of treatment,apparent tumor stasis and shrinkage
same,pSTAT5 level [MFI] in CD3+ T cells from IL2 stimulated whole blood,pSTAT5 in CD3+ T cells; [4],1261±97 MFI
same,"pSTAT5 levels in whole blood T cells, fold higher than vehicle","pSTAT5 in CD3+ T cells; day 8 of dosing, ex vivo IL2 stimulation",1.6 fold
same,% GzB+ cells within splenic CD8+ T cells,[2]; [4],4.3±0.9%
same,"frequency of granzyme B producing cells within CD8+ T population in spleen, fold higher than vehicle",[2]; day 8 of dosing,3.9 fold
same,IP10 in plasma,IP10; [4],256 ± 30 pg/mL
same,"IP10 levels in plasma, fold higher than vehicle",IP10; day 8 of dosing,1.7 fold
